From patent publication US20230364049A1, “COMBINATION OF P2Y6 INHIBITORS AND IMMUNE CHECKPOINT INHIBITORS” (VIB VZW, priority 2020, published 2023)

Legend:
[1] = test system: murine bone marrow derived macrophages (BMDMs); assay: BMDM migration assay (Transwell, UDP as chemoattractant); format: cell-based; conditions: 10 μM MRS2578, 100 μM UDP in bottom chamber, 6 h, FIG. 4
Method: In the macrophage migration assays, 1×10^5 murine BMDMs were seeded on […] polycarbonate membranes (Transwell; Costar) with or without 10 μM MRS2578. The bottom chambers contained DMEM with or without 100 μM UDP, 100 μM Uridine (Sigma-Aldrich) or 100 μM Cytidine (Sigma-Aldrich), or alternatively, conditioned media from NT or CDA KD cells.
After 6 h incubation, the cells were removed from the top of each membrane with a cotton stick and migrated cells were fixed in 4% PFA, washed in PBS, stained with crystal violet (2.5 g/L) and Hoechst, and mounted on glass slides with ProLong Gold mounting medium without DAPI. Images were acquired with Olympus BX41 microscope and CellSense imaging software.

[2] = test system: Panc02 tumors; assay: Subcutaneously implanted Panc02 tumor model, with FACS analysis of tumors; format: in vivo, mice
Method: 4×10^6 Panc02 cells were injected subcutaneously (s.c.) in the right flank of the mouse in a final suspension of 200 μI PBS. Tumor volumes were measured at least three times per week with a calliper and calculated using the formula: Volume (mm^3): ((Width(mm))^2×Length(mm))/2. 0.1×10^6 KPC1245 cells were injected orthotopically into the head of the pancreas in 20 μl of PBS.
(§1) Mice were randomized and treated, at indicated time points, intraperitoneally (i.p.) with 10 mg/kg of α-PD-1 (BioXcell) or control IgG from rat serum (Sigma-Aldrich), 3 mg/kg/day MRS2578 (Selleck Chemicals) or control vehicle. At the end stage, tumor weight was measured.
(§2) Mice were monitored and weighed continuously during the experiments. Mice showing symptoms of illness, that lost 20% of initial body weight, peritoneal leakage or with ulcerated tumors were sacrificed and excluded from the experiments. At the end stage, tumor weight was registered and samples were collected for histological examination, metabolomics and/or FACS/sorter analysis.
Tumor-bearing mice were sacrificed by cervical dislocation and perfused with saline to remove circulating immune cells. Tumors were harvested and minced in αMEM medium (Lonza) supplemented with 5% FBS, 1% Pen/Strep, 50 μM β-mercaptoethanol (Gibco), 5U/mL DNase I (Qiagen), 0.85 mg/mL Collagenase V (Collagenase from Clostridium histolyticum, Sigma-Aldrich), 1.25 mg/mL Collagenase D (Collagenase from Clostridium histolyticum, Roche) and 1 mg/mL Dispase II (Gibco) and incubated for 30 minutes at 37° C. The digested tissue was filtered using a 70 μm pore sized mesh strainer and cells were centrifuged 5 minutes at 300 xg. The samples were resuspended in Red Blood Cell Lysing Buffer Hybri-Max™ (Sigma-Aldrich) for 30 seconds, inactivated with FACS buffer (PBS containing 2% FBS and 2 mM EDTA) and centrifuged. The cell pellets were resuspended in FACS buffer and filtered with a 40 μm pore sized mesh strainer. Cells were resuspended in FACS buffer and for the intracellular measurement of interferon γ (IFN-γ) and granzyme B (GZMB), single-cell suspensions were culture in RPMI medium supplemented with 10% FBS, 1% glutamine, 1% Pen/Strep and stimulated with phorbol 12-myristate 13-acetate (PMA)/ionomycin Cell Stimulation Cocktail (eBioscience™, 1:500) in the presence of Brefeldin A (BioLegend®, 1:1000) or Monensin (eBioscience™, 1:1000) for 4 h at 37° C. Cells were then incubated for 15 minutes at 4° C. with Mouse BD Fc Block purified Rat Anti-Mouse CD16/CD32 mAb (BD Pharmingen™) and stained with the following antibodies for 30 minutes at 4° C.: Fixable viability dye (eFluor™ 506, eBioscience™), anti-CD45 (30-F11, APC-Cy7 or FITC, BioLegend®), anti-CD11b (M1/70, PerCP-Cy5.5, BioLegend®; eFluor™ 450, eBioscience™; or PE, BD Biosciences), anti-TCR-13 chain (H57-597, BV421, BD Biosciences), anti-CD4 (RM4-5, PE, BioLegend®), anti-CD8 (53-6.7, PE-Cy7, eBioscience™ or 53-6.7, APC-Cy7, BioLegend®), anti-CD69 (H1.2F3, APC, eBioscience™), anti-F4/80 (BM8, Alexa Fluor 488, eBioscience™; PerCP-Cy5.5, BioLegend®; or BV421, BioLegend®), anti-IFN-γ (XMG1.2, PE-Cy7, eBioscience™), anti-GZMB (GB11, Alexa Fluor 647, BioLegend®), anti-MHC-II (M5/114.15.2, APC, eBioscience™; or PerCP-eFluor 710, eBioscience™), anti-CD11c (N418, PE-Cy7, eBioscience™), anti-CD206 (MR5D3, Alexa Fluor 647, Bio-Rad), anti-Ly-6G (1A8, PE, BD Pharmingen™) anti-CD335 (NKp46) (29A1.4, APC, BioLegend®), anti-Foxp3 (FJK-16s, APC, eBioscience™) and anti-CD25 (PC61.5, PE-Cy7, eBioscience™). Cells were subsequently washed and resuspended in cold FACS buffer before FACS analysis or flow sorting by a FACS Verse or FACS Aria (BD Biosciences), respectively.

[3] = Tolerability / body weight of treated Panc02 tumor-bearing mice; format: in vivo; conditions: MRS2578 3 mg/kg/day i.p.; FIG. 7
Method: as §1, §2

[4] = Panc02 tumors, MRS2578 vs vehicle, FIG. 6

Structure (SMILES): S=C=Nc1cccc(NC(=S)NCCCCNC(=S)Nc2cccc(N=C=S)c2)c1 [MRS2578, N,N-1,4-butanediylbis-N-(3-isothiocyanatophenyl) thiourea]
- Migration of BMDMs towards UDP [1]: abrogated
- Migration of BMDMs towards UDP ([1]; listed as MRS 2578): specifically inhibited
- Tumor volume ([2]; MRS2578 3 mg/kg/day i.p. combined to α-PD-1 therapy (10 mg/kg i.p.), sc Panc02, FIG. 5): decrease
- Tumor weight ([2]; MRS2578 3 mg/kg/day i.p. combined to α-PD-1 therapy (10 mg/kg i.p.), sc Panc02, end stage, FIG. 5): decrease
- Infiltration of M2 polarized TAMs into Panc02 tumors ([2]; Panc02 tumors, MRS2578): reduced infiltration
- Infiltration of tumor-associated macrophages (TAMs) into Panc02 tumors ([2]; Panc02 tumors, MRS2578): Reduced infiltration
- Activation of CD8+ T cells in the tumors (GZMB, FACS) [2, 4]: more activated
- M2 polarization of macrophages (CD206 expression by FACS) [2, 4]: reduction of M2 polarization
- Harmful effect on mice (evolution of body weight) [3]: no harmful effect
